According to patent US20060002946A1, “Targeted immunogens” (Aventis Pasteur, Inc., priority 2003, published 2006):

Columns and labels:
[1] = tested on: HLA-A2/K^b transgenic mice; details: 100 μg s.c. plus T-helper peptide, no adjuvant, boosts days 14 and 28
Description: Mice were similarly boosted on days 14 and 28. On day 42, splenocytes (2 mice per group) were individually restimulated in vitro for 6 days with the appropriate wild type peptide, and then tested for either IFN-γ secretion by ELISPOT (FIG. 3A) or CTL assay (FIG. 3B) using peptide-pulsed C1R-A2 cells. On day 57, the remaining mice in each group were similarly tested. Average responses from each group are shown.

[2] = tested on: HLA-A2/K^b transgenic mice; experiment: s.c. immunization without adjuvant, CTL assay (FIG. 3B); format: in vivo, mouse; details: 100 μg s.c. plus T-helper peptide, no adjuvant, boosts days 14 and 28
Description: Mice were similarly boosted on days 14 and 28. […] Average responses from each group are shown.

[3] = tested on: HLA-A2/Kb transgenic mice; experiment: s.c. peptide immunization, gp100-154 CTL chromium release (FIG. 5); details: 50 ug s.c., boosts days 21 and 42, day 63
Description: CTL responses in HLA-A2/Kb transgenic mice following subcutaneous (s.c.) injection of peptide. Mice were immunized s.c. with 50 ug of the indicated peptides and boosted on days 21 and 42 following the first injection. Splenocytes from immunized animals were harvested on day 63 post immunization, re-stimulated with the native gp100-154 peptide for 5 days, and tested for CTL activity in a standard chromium release assay using target cells pulsed with gp100-154 peptide.
Furthermore, CTL responses were assessed in HLA-A2/K^b transgenic mice (Sherman strain) following s.c. immunization with gp100-154 peptide alone, conjugated to hPER1 or AntpHD with or without linker FVYVW. Mice were boosted on days 21 and 42 and splenocytes from vaccinated animals were harvested on day 63 and tested for CTL activity after 5 days of restimulation in vitro.

## GRRHHRRSKAKRSRKTWGQYWQV
[1]
  154-specific IFN-γ responses (ELISPOT): can be induced
[2]
  peptide-specific CTL responses: can be induced
[3]
  CTL responses against gp100-154: a weak response was observed
